Literature values, collected in publication PMC3294027 (Methods (San Diego, Calif.), 2011).
pKd: −log10 of the molar value. Like-named read-outs stand apart in the source and are kept apart here.

What was measured:
antibody 2D12.5 [1] = conditions: 0.1 M sodium phosphate, pH 7.0, SD in parentheses
antibody 2D12.5 [2] = conditions: for Half-life / koff: TBS pH 7.4, Avg(SD); for Calc kon: calculated as koff/KD

Row | Substance | KA (antibody 2D12.5 [1]; 30 °C) | pKd (antibody 2D12.5 [1]; 30 °C) | ΔG (antibody 2D12.5 [1]; 30 °C) | ΔH (antibody 2D12.5 [1]; 30 °C) | ΔS (antibody 2D12.5 [1]; 30 °C) | KA (antibody 2D12.5 [1]; 37 °C) | pKd (antibody 2D12.5 [1]; 37 °C) | ΔG (antibody 2D12.5 [1]; 37 °C) | ΔH (antibody 2D12.5 [1]; 37 °C) | ΔS (antibody 2D12.5 [1]; 37 °C) | Half-life (antibody 2D12.5 [2]; 30°C) [min] | koff (antibody 2D12.5 [2]; 30°C) | Calc kon (antibody 2D12.5 [2]; 30°C) [M⁻¹ s⁻¹] | Half-life (antibody 2D12.5 [2]; 37°C) [min] | koff (antibody 2D12.5 [2]; 37°C) | Calc kon (antibody 2D12.5 [2]; 37°C) [M⁻¹ s⁻¹]
1 | cobalt(II) S-2-(4-aminobenzyl)-1, 4, 7, 10-tetraazacyclododecanetetraacetate [ABD(Co)] | 8.2(±0.9) ×10^5 M^−1 | 5.92 | −8.2(±0.1) kcal/mol | −12.2(±0.4) kcal/mol | −13.2(±1.3) cal/mol-K | 7.1(±0.4) ×10^5 M^−1 | 5.85 | −8.3(±0.1) kcal/mol | −12.4(±4.8) kcal/mol | −13.3(±4.8) cal/mol-K | – | – | – | – | – | –
2 | yttrium S-2-(4-aminobenzyl)-1, 4, 7, 10-tetraazacyclododecanetetraacetate [ABD(Y)] | 3.3(±2.1) ×10^8 M^−1 | 8.51 | −11.7(±0.4) kcal/mol | −18.2(±0.5) kcal/mol | −21.5(±2.9) cal/mol-K | 5.2(±0.9) ×10^8 M^−1 | 8.70 | −12.4(±0.2) kcal/mol | −20.1(±1.2) kcal/mol | −24.9(±4.1) cal/mol-K | 2.68 ± 0.217 | 4.0(±0.3) x10^−3 s−1 | 1.3e+06 | 1.62 ± 0.15 | 7.0(±0.7) ×10^−3 s−1 | 3.5e+06
